Experiments:
[1] = tested on: Human recombinant AMPK enzyme; test: AMPK screening assay, Delfia technology; type: biochemical; details: 50 mM Hepes buffer pH 7.4, 125 μM ATP, AMARAA peptide substrate, 30 min room temperature, activator concentration not given
Procedure: (§1) Human recombinant AMPK enzyme was expressed in E. Coli and was reactivated in vitro by LKB1 prior to enzyme activity determination.
(§2) AMPK enzyme activities were assayed by using 2 fluorescent based technologies (AlphaScreen/Delfia) and were carried out in microtiter plates (containing 25 mM Tris/HCl buffer, pH 7.5 with 100 μM ATP/50 mM Hepes buffer, pH 7.4 with 125 μM ATP respectively) in the presence of a synthetic peptide substrate (AMARAASAAALARRR, the “AMARAA” peptide) and activators in serial dilutions. Reactions were initiated by the addition of AMPK (50-100 ng). Following mixing, the plates were incubated for 30 min at room temperature. Enzyme activity was assayed by using an anti-phosphoserine antibody to measure the quantity of phosphate incorporated into the AMARAA. Activity is expressed in % of control (basal activity): […]

[2] = tested on: Human recombinant AMPK enzyme; test: AMPK screening assay, AlphaScreen technology; type: biochemical; details: 25 mM Tris/HCl buffer pH 7.5, 100 μM ATP, AMARAA peptide substrate, 30 min room temperature, activator concentration not given
Procedure: as §1, §2

[3] = tested on: ob/ob and db/db mice; details: 8 day administration; both ob/ob and db/db mice; cited from earlier work

| Compound | Delfia: AMPK activity expressed in % of control (basal activity) [1] | α-Screen: AMPK activity expressed in % of control (basal activity) [2] | reduction of blood glucose [3] |
| --- | --- | --- | --- |
| Cc1c(Br)sc2[nH]c(=O)c(-c3ccccc3)c(O)c12 [Compound 202, 2-Bromo-4-hydroxy-3-methyl-5-phenyl-7H-thieno[2,3-b]pyridin-6-one] | 313 % of control | 322 % of control |  |
| CC(C)c1c(Cl)sc2[nH]c(=O)c(-c3ccccc3)c(O)c12 [Compound 204, 2-Chloro-4-hydroxy-3-isopropyl-5-phenyl-7H-thieno[2,3-b]pyridin-6-one] | 233 % of control | 181 % of control |  |
| O=c1[nH]c2sc(Cl)c(C3CC3)c2c(O)c1-c1cccc(Oc2ccccc2)c1 [Compound 205, 2-chloro-3-cyclopropyl-4-hydroxy-5-(3-phenoxy-phenyl)-7H-thieno[2,3-b]pyridine-6-one] | 151 % of control | 166 % of control |  |
| O=c1[nH]c2scc(C3CC3)c2c(O)c1-c1ccccc1 [Compound 208, 3-Cyclopropyl-4-hydroxy-5-phenyl-7H-thieno[2,3-b]pyridin-6-one] | 163 % of control | 154 % of control |  |
| CCC(C)c1csc2[nH]c(=O)c(-c3ccccc3)c(O)c12 (centres unmarked) [Compound 209] | 201 % of control | 156 % of control |  |
| CCc1cc2c(O)c(-c3ccccc3)c(=O)[nH]c2s1 [Compound 201, 2-Ethyl-4-hydroxy-5-phenyl-7H-thieno[2,3-b]pyridin-6-one] | 219 % of control | 150 % of control |  |
| NC(=O)c1ncn([C@@H]2O[C@H](CO)[C@@H](O)[C@H]2O)c1N [AICAR] |  |  | 35% |
| O=c1[nH]c2sc(Br)cc2c(O)c1-c1ccccc1 [Compound 203, 2-Bromo-4-hydroxy-5-phenyl-7H-thieno[2,3-b]pyridin-6-one] | 271 % of control | 286 % of control |  |
| Cc1sc2[nH]c(=O)c(-c3ccccc3)c(O)c2c1C [Compound 200, 4-Hydroxy-2,3-dimethyl-5-phenyl-7H-thieno[2,3-b]pyridin-6-one] | 232 % of control | 154 % of control |  |
| O=c1[nH]c2sc3c(c2c(O)c1-c1ccccc1)CCCC3 [Compound 210, 4-Hydroxy-3-phenyl-5,6,7,8-tetrahydro-1-benzothieno[2,3-b]pyridin-2(1H)-one] | 286 % of control | 176 % of control |  |
| CCC(C)c1c(Cl)sc2[nH]c(=O)c(-c3ccccc3)c(O)c12 (centres unmarked) [Compound 206] | 164 % of control | 269 % of control |  |
| CC(C)c1csc2[nH]c(=O)c(-c3ccccc3)c(O)c12 [Compound 207, 4-Hydroxy-3-isopropyl-5-phenyl-7H-thieno[2,3-b]pyridin-6-one] | 169 % of control | 131 % of control |  |

Source: patent publication US20090105293A1, “USE OF THIENOPYRIDONE DERIVATIVES AS AMPK ACTIVATORS AND PHARMACEUTICAL COMPOSITIONS CONTAINING THEM” (priority 2005, published 2009)
